Laboratory results reported in PMC5140066, “Electrophysiological Characteristics of Human iPSC-Derived Cardiomyocytes for the Assessment of Drug-Induced Proarrhythmic Potential” (PLoS ONE, 2016).

System: human induced pluripotent stem cell-derived cardiomyocytes (hiPSC-CMs)
Experiment: Field potential recording of hiPSC-CM sheets on multi-electrode array (MEA)
Assay type: cell-based
Conditions: for Use (rate) dependence of FPD prolongation: from FPD-ISI plots
Procedure: The cells were thawed and suspended in iCell Cardiomyocytes Plating Medium (Cellular Dynamics International), then plated (approximately 2 × 10^6 cells/well) in 6-well tissue-culture plates coated with 0.1% gelatin. After two days of incubation at 37°C under an atmosphere of 5% CO2, the plating medium was replaced with iCell Cardiomyocytes Maintenance Medium (Cellular Dynamics International); this medium was used as the culture medium throughout the experiments and was replaced every 1 to 3 days. The cells were cultured for 7 to 14 days in a 5% CO2 incubator at 37°C and then re-plated onto MEA probes (MED-P515A or MED-PG515A; Alpha Med Scientific, Osaka, Japan).
The recording areas of the MEA probes were coated with fibronectin (Becton Dickinson, Franklin Lakes, NJ, USA; Invitrogen, Carlsbad, CA, USA; Corning, Corning, NY, USA). Fibronectin was dissolved in distilled water or Dulbecco's phosphate-buffered saline (PBS) [−] to give 50 μg/mL, the recording areas were covered with 2 μL fibronectin solution, and then the MEA probes were incubated at 37°C for at least 1 h. […] After discarding the fibronectin solution from the MEA probes without complete drying, the cell suspension at a density of 3.0 × 10^4 cells in a 2 μL droplet was re-plated onto the fibronectin-coated area of each MEA probe and incubated for 1 to 3 h in a 5% CO2 incubator at 37°C. Each well of the MEA probes was then filled with maintenance medium at a volume of 1 mL/well. The medium was replaced every 1 to 3 days thereafter, and the cells were cultured for 5 to 14 days to obtain high density cardiomyocyte-sheets with spontaneous and synchronous electrical activities.
Prior to recording FPs, the cardiomyocyte-sheets were equilibrated for at least 30 min in a 5% CO2 incubator at 37°C in fresh culture medium. The MEA probes were then transferred to a FP measurement apparatus (MED64 system; Alpha Med Scientific, Osaka, Japan) and covered with a lid through which humidified gas containing 5% CO2 was provided. […] Analogue FP signals from the spontaneously beating cardiomyocyte-sheets were acquired through a 0.1-Hz high-pass filter and a 5-kHz low-pass filter, and digitized at 20 kHz using the MED64 system. […] Compound stock solutions were prepared using DMSO at 1000-fold the target concentrations of the test compounds. The stock solutions were diluted with the maintenance medium to obtain the appropriate compound concentrations, then 1/10th to 1/50th the volume of the medium in the wells was exchanged with an equal volume of the compound-containing medium. The compounds were applied in a cumulative manner to the wells. The concentration of DMSO was 0.5–0.6% at the highest concentration of the test compounds. […] FPD (ms) and ISI (ms) were analyzed using Mobius QT software designed by WitWerx (Santa Cruz, CA, USA) (Fig 1b).
Baseline FP waveforms that met the following criteria were used for analysis. […] In the FP signals, EAD and TA were defined as slow negative spikes and a sharp deflection with an amplitude ≥ ± 100 μV, respectively (Fig 1c). EAD, TA or both usually appear during or after the second positive deflection. ISI, FPD and FPDcF were not calculated for concentrations in which EAD or TA were observed.
As previously mentioned, total 96 data equally from 4 facilities each were used for the analysis (24 data per facility). […] The root mean squared prediction error (RMSE) was used to show the level of accuracy of the equation predicted for the observed data (Fig 2). With categorical data analysis of FPD, inter-facilities differences were investigated with Kruskal-Wallis test (Fig 4).

[1] = cisapride 3 nM, all 4 facilities, n=24
[2] = cisapride 3 nM, facility A, n=6
[3] = cisapride 3 nM, facility B, n=6
[4] = cisapride 3 nM, facility C, n=6
[5] = cisapride 3 nM, facility D, n=6
[6] = cisapride 10 nM, all 4 facilities, n=24
[7] = cisapride 10 nM, all 4 facilities, n=24, listed as cisapride
[8] = cisapride 10 nM, facility A, n=6
[9] = cisapride 10 nM, facility B, n=6
[10] = cisapride 10 nM, facility C, n=6
[11] = cisapride 10 nM, facility D, n=6
[12] = cisapride 30 nM, all 4 facilities, n=24
[13] = cisapride 30 nM, facility A, n=6
[14] = cisapride 30 nM, facility B, n=6
[15] = cisapride 30 nM, facility C, n=6
[16] = cisapride 30 nM, facility D, n=6
[17] = cisapride 100 nM, all 4 facilities, n=24
[18] = cisapride 100 nM, facility D, n=6

SMILES: Cc1cccc(CCN2CCC(C(=O)c3ccc(NS(C)(=O)=O)cc3)CC2)n1 [E-4031]
- Slope factor of FPD-ISI regression, % change (E-4031 1 nM): 0.9347
- Slope factor of FPD-ISI regression, % change (E-4031 10 nM): 1.8977
- Slope factor of FPD-ISI regression, absolute FPD (ms) (E-4031 10 nM (sham 0.1653)): 0.3328
- Use (rate) dependence of FPD prolongation: induced FPD prolongation in a reverse use-dependent manner

SMILES: COc1cc(N)c(Cl)cc1C(=O)NC1CCN(CCCOc2ccc(F)cc2)CC1OC (stereo not drawn) [Cisapride, cisapride]
- Delta FPDcF (categorical analysis, Fridericia correction, S5 Table): increased in a concentration-dependent manner
- Delta FPD (categorical analysis, S4 Table): increased in a concentration-dependent manner
- Slope factor of FPD-ISI regression, % change (cisapride 3 nM): 0.6124
- Preparations in absolute FPD category > 450 ms [1]: 21%(5/24)
- Preparations in absolute FPD category > 480 ms [1]: 13%(3/24)
- Preparations in absolute FPD category > 500 ms [1]: 17%(4/24)
- Preparations in absolute FPD category ≤ 450 ms [1]: 50%(12/24)
- Preparations in absolute FPD category > 450 ms [2]: 17%(1/6)
- Preparations in absolute FPD category > 480 ms [2]: 17%(1/6)
- Preparations in absolute FPD category > 500 ms [2]: 50% (3/6)
- Preparations in absolute FPD category ≤ 450 ms [2]: 17%(1/6)
- Preparations in absolute FPD category > 450 ms [3]: 17%(1/6)
- Preparations in absolute FPD category > 480 ms [3]: 17%(1/6)
- Preparations in absolute FPD category > 500 ms [3]: 0% (0/6)
- Preparations in absolute FPD category ≤ 450 ms [3]: 67%(4/6)
- Preparations in absolute FPD category > 450 ms [4]: 17%(1/6)
- Preparations in absolute FPD category > 480 ms [4]: 17%(1/6)
- Preparations in absolute FPD category > 500 ms [4]: 17%(1/6)
- Preparations in absolute FPD category ≤ 450 ms [4]: 50% (3/6)
- Preparations in absolute FPD category > 450 ms [5]: 33%(2/6)
- Preparations in absolute FPD category > 480 ms [5]: 0% (0/6)
- Preparations in absolute FPD category > 500 ms [5]: 0% (0/6)
- Preparations in absolute FPD category ≤ 450 ms [5]: 67%(4/6)
- Preparations in absolute FPD category > 450 ms [6]: 38%(9/24)
- Preparations in absolute FPD category > 480 ms [6]: 17%(4/24)
- Preparations in absolute FPD category > 500 ms [6]: 29%(7/24)
- Preparations in absolute FPD category ≤ 450 ms [6]: 17% (4/24)
- Preparations in absolute FPD category > 500 ms [7]: 29%
- Preparations with EAD/TA [7]: no EAD/TAs were observed
- Preparations in absolute FPD category > 450 ms [8]: 0% (0/6)
- Preparations in absolute FPD category > 480 ms [8]: 50% (3/6)
- Preparations in absolute FPD category > 500 ms [8]: 50% (3/6)
- Preparations in absolute FPD category ≤ 450 ms [8]: 0% (0/6)
- Preparations in absolute FPD category > 450 ms [9]: 33%(2/6)
- Preparations in absolute FPD category > 480 ms [9]: 0% (0/6)
- Preparations in absolute FPD category > 500 ms [9]: 17%(1/6)
- Preparations in absolute FPD category ≤ 450 ms [9]: 50% (3/6)
- Preparations in absolute FPD category > 450 ms [10]: 50% (3/6)
- Preparations in absolute FPD category > 480 ms [10]: 0% (0/6)
- Preparations in absolute FPD category > 500 ms [10]: 33%(2/6)
- Preparations in absolute FPD category ≤ 450 ms [10]: 17%(1/6)
- Preparations in absolute FPD category > 450 ms [11]: 67%(4/6)
- Preparations in absolute FPD category > 480 ms [11]: 17%(1/6)
- Preparations in absolute FPD category > 500 ms [11]: 17%(1/6)
- Preparations in absolute FPD category ≤ 450 ms [11]: 0% (0/6)
- Slope factor of FPD-ISI regression, % change (cisapride 30 nM): 1.2274
- Slope factor of FPD-ISI regression, absolute FPD (ms) (cisapride 30 nM (sham 0.1204)): 0.1644
- Preparations in absolute FPD category > 450 ms [12]: 4% (1/24)
- Preparations in absolute FPD category > 480 ms [12]: 13%(3/24)
- Preparations in absolute FPD category > 500 ms [12]: 71%(17/24)
- Preparations in absolute FPD category ≤ 450 ms [12]: 8% (2/24)
- Preparations with EAD/TA [12]: 4%(1/24)
- Preparations in absolute FPD category > 500 ms (cisapride 30 nM, all 4 facilities, n=24, listed as cisapride): 71%
- Number of preparations that showed EAD/TAs (cisapride 30 nM, all 4 facilities, of 24): 1 preparation
- Preparations in absolute FPD category > 450 ms [13]: 0% (0/6)
- Preparations in absolute FPD category > 480 ms [13]: 0% (0/6)
- Preparations in absolute FPD category > 500 ms [13]: 83%(5/6)
- Preparations in absolute FPD category ≤ 450 ms [13]: 0% (0/6)
- Preparations with EAD/TA [13]: 17%(1/6)
- Preparations in absolute FPD category > 450 ms [14]: 17%(1/6)
- Preparations in absolute FPD category > 480 ms [14]: 0% (0/6)
- Preparations in absolute FPD category > 500 ms [14]: 50% (3/6)
- Preparations in absolute FPD category ≤ 450 ms [14]: 33%(2/6)
- Preparations in absolute FPD category > 450 ms [15]: 0% (0/6)
- Preparations in absolute FPD category > 480 ms [15]: 33%(2/6)
- Preparations in absolute FPD category > 500 ms [15]: 67%(4/6)
- Preparations in absolute FPD category ≤ 450 ms [15]: 0% (0/6)
- Preparations in absolute FPD category > 450 ms [16]: 0% (0/6)
- Preparations in absolute FPD category > 480 ms [16]: 17%(1/6)
- Preparations in absolute FPD category > 500 ms [16]: 83%(5/6)
- Preparations in absolute FPD category ≤ 450 ms [16]: 0% (0/6)
- Preparations in absolute FPD category > 450 ms [17]: 0% (0/24)
- Preparations in absolute FPD category > 480 ms [17]: 0% (0/24)
- Preparations in absolute FPD category > 500 ms [17]: 8%(2/24)
- Preparations in absolute FPD category ≤ 450 ms [17]: 0% (0/24)
- Preparations with EAD/TA [17]: 92%(22/24)
- Preparations with EAD/TA (cisapride 100 nM, all 4 facilities, n=24, listed as cisapride): 92%
- Preparations with EAD/TA (cisapride 100 nM, facility A, n=6): 100%(6/6)
- Preparations with EAD/TA (cisapride 100 nM, facility B, n=6): 100%(6/6)
- Preparations with EAD/TA (cisapride 100 nM, facility C, n=6): 100%(6/6)
- Preparations in absolute FPD category > 450 ms [18]: 0% (0/6)
- Preparations in absolute FPD category > 480 ms [18]: 0% (0/6)
- Preparations in absolute FPD category > 500 ms [18]: 33%(2/6)
- Preparations in absolute FPD category ≤ 450 ms [18]: 0% (0/6)
- Preparations with EAD/TA [18]: 67%(4/6)
- Preparations with EAD/TA (cisapride 300 nM, all 4 facilities, n=24): 100%(24/24)
- Preparations with EAD/TA (cisapride 300 nM, facility D, n=6): 100%(6/6)
- Effect on FPD (cumulative application): prolonged FPD in a concentration-dependent manner
- Use (rate) dependence of FPD prolongation: induced FPD prolongation in a reverse use-dependent manner
